Measurements published in US8841321B2, “Quinoline derivatives as antibacterial agents” (Janssen Pharmaceutica NV, priority 2005, dated 2014).
Converted amounts (≈) assume the structure as drawn.

Tests used:
[1] = test system: STA 29213 (Staphylococcus aureus (ATCC29213)); experiment: Microtitre plate assay, IC90 determination; format: cell-based; conditions: for IC90 (μg/ml) STA 29213: Staphylococcus aureus (ATCC29213)
Experimental: (§1) The bacteria used in this study were grown overnight in flasks containing 100 ml Mueller-Hinton Broth (Becton Dickinson—cat. no. 275730) in sterile de-ionized water, with shaking, at 37° C. Stocks (0.5 ml/tube) were stored at −70° C. until use. Bacteria titrations were performed in microtiter plates and colony forming units (CFUs) were determined. In general, an inoculum level of approximately 100 CFUs was used for susceptibility testing.
(§2) Flat-bottom, sterile 96-well plastic microtiter plates were filled with 180 μl of sterile deionized water, supplemented with 0.25% BSA. Subsequently, stock solutions (7.8× final test concentration) of compounds were added in 45 μl volumes in column 2. Serial five-fold dilutions (45 μl in 180 μl) were made directly in the microtiter plates from column 2 to reach column 11. Untreated control samples with (column 1) and without (column 12) inoculum were included in each microtiter plate. Depending on the bacteria type, approximately 10 to 60 CFU per well of bacteria inoculum (100 TCID50), in a volume of 100 μl in 2.8× Mueller-Hinton broth medium, was added to the rows A to H, except column 12. The same volume of broth medium without inoculum was added to column 12 in row A to H. The cultures were incubated at 37° C. for 24 hours under a normal atmosphere (incubator with open air valve and continuous ventilation). At the end of incubation, one day after inoculation, the bacterial growth was quantitated fluorometrically. Therefore resazurin (0.6 mg/ml) was added in a volume of 20 μl to all wells 3 hours after inoculation, and the plates were re-incubated overnight. A change in colour from blue to pink indicated the growth of bacteria. The fluorescence was read in a computer-controlled fluorometer (Cytofluor Biosearch) at an excitation wavelength of 530 nm and an emission wavelength of 590 nm. The % growth inhibition achieved by the compounds was calculated according to standard methods. The IC90 (expressed in μg/ml) was defined as the 90% inhibitory concentration for bacterial growth.

[2] = test system: SPN 6305 (Streptococcus pneumoniae (ATCC6305)); experiment: Microtitre plate assay, IC90 determination; format: cell-based; conditions: for IC90 (μg/ml) SPN 6305: Streptococcus pneumoniae (ATCC6305)
Experimental: as §1, §2

| SMILES | IC90 (μg/ml) STA 29213 [1] | IC90 (μg/ml) SPN 6305 [2] | IC90 ([1]; Staphylococcus aureus, ATCC29213, Staphylococcus aureus (ATCC29213), read-out: IC90 (μg/ml) STA 29213) | IC90 ([2]; Streptococcus pneumoniae, ATCC6305, Streptococcus pneumoniae (ATCC6305), read-out: IC90 (μg/ml) SPN 6305) |
| --- | --- | --- | --- | --- |
| COc1nc2ccc(Cl)cc2cc1C(c1ccccc1)C(O)(CCCCN(C)C)c1ccc2ccccc2c1 (racemic) [Compound 79] | 2.15 µg/mL (≈ 3.99 µM) | 2.7 µg/mL (≈ 5.01 µM) |  |  |
| CCCCN(C)CCCCC(O)(c1ccccc1)C(c1ccccc1)c1cc2cc(Br)ccc2nc1OC (racemic) [Compound 92] | 11.48 µg/mL (≈ 19.9 µM) | 2.29 µg/mL (≈ 3.98 µM) |  |  |
| COc1nc2ccc(Br)cc2cc1C(c1ccccc1)C(O)(CCCCN1CCCC1)c1ccccc1 (racemic) [Compound 93] | 11.16 µg/mL (≈ 19.9 µM) | 9.95 µg/mL (≈ 17.8 µM) |  |  |
| COc1nc2ccc(Br)cc2cc1C(c1ccccc1)C(O)(CCCCN1CCCCC1)c1ccccc1 (racemic) [Compound 94] | 4.06 µg/mL (≈ 7.08 µM) | 1.81 µg/mL (≈ 3.16 µM) |  |  |
| COc1nc2ccc(Br)cc2cc1C(c1ccccc1)C(O)(CCCCN1CCCCC1)c1ccccc1 (racemic) [Compound 95] | 10.2 µg/mL (≈ 17.8 µM) | 2.28 µg/mL (≈ 3.98 µM) |  |  |
| COc1ccc(C(O)(CCCCN2CCCCC2)C(c2ccccc2)c2cc3cc(Br)ccc3nc2OC)cc1 (racemic) [Compound 97] | 1.91 µg/mL (≈ 3.16 µM) | 1.91 µg/mL (≈ 3.16 µM) |  |  |
| COc1nc2ccc(Br)cc2cc1C(c1ccccc1)C(O)(CCCCN1CCC(C)CC1)c1ccc2ccccc2c1 (racemic) [Compound 103] | 1.8 µg/mL (≈ 2.82 µM) | 0.4 µg/mL (≈ 0.627 µM) |  |  |
| COc1nc2ccc(Br)cc2cc1C(c1ccccc1)C(O)(CCCCN(C)C)CC(C)C (racemic) [Compound 117] | 9.13 µg/mL (≈ 17.8 µM) | 2.29 µg/mL (≈ 4.46 µM) |  |  |
| COc1nc2ccc(Br)cc2cc1C(c1ccccc1)C(O)(CCCCN(C)C)CC(C)C (racemic) [Compound 118] | 8.14 µg/mL (≈ 15.9 µM) | 5.14 µg/mL (≈ 10 µM) |  |  |
| COc1nc2ccc(Br)cc2cc1C(c1ccccc1)C(O)(CCCCN(C)C)CCC(C)C (racemic) [Compound 119] | 18.72 µg/mL (≈ 35.5 µM) | 4.19 µg/mL (≈ 7.94 µM) |  |  |
| COc1nc2ccc(Br)cc2cc1C(c1ccccc1)C(O)(CCCCN(C)C)CCC(C)C (racemic) [Compound 120] | 8.36 µg/mL (≈ 15.8 µM) | 10.53 µg/mL (≈ 20 µM) |  |  |
| COc1nc2ccc(Br)cc2cc1C(c1ccccc1)C(O)(CCCCN1CCCCC1)CC(C)C (racemic) [Compound 121] | 8.77 µg/mL (≈ 15.8 µM) | 1.96 µg/mL (≈ 3.54 µM) |  |  |
| CSc1nc2ccc(Br)cc2cc1C(c1ccccc1)C(O)(CCCCN(C)C)c1ccc2ccccc2c1 (single isomer, unassigned) [Compound 3] | 60.0 µg/mL (≈ 100 µM) | 60.0 µg/mL (≈ 100 µM) |  |  |
| COc1nc2cc(C)ccc2cc1C(c1ccccc1)C(O)(CCCCN(C)C)c1ccc2ccccc2c1 (single isomer, unassigned) [Compound 77] | 1.84 µg/mL (≈ 3.55 µM) | 1.84 µg/mL (≈ 3.55 µM) |  |  |
| COc1nc2cc(C)ccc2cc1C(c1ccccc1)C(O)(CCCCN(C)C)c1ccc2ccccc2c1 (single isomer, unassigned) [Compound 78] | 1.84 µg/mL (≈ 3.55 µM) |  |  |  |
| COc1nc2ccc(Br)cc2cc1C(c1ccccc1)C(O)(CCCCN1CCOCC1)c1ccccc1 (single isomer, unassigned) [Compound 114] |  | 7.25 µg/mL (≈ 12.6 µM) |  |  |
| COc1nc2ccc(Br)cc2cc1C(c1ccccc1)C(O)(CCCCN1CCOCC1)c1ccccc1 (single isomer, unassigned) [Compound 115] |  | 2.29 µg/mL (≈ 3.98 µM) |  |  |
| COc1nc2ccc(Br)cc2cc1C(c1ccccc1)C(O)(CCCCN(C)C)Cc1ccccc1 (single isomer, unassigned) [Compound 128] | 1.73 µg/mL (≈ 3.16 µM) |  |  |  |
| COc1nc2ccc(-c3cccnc3)cc2cc1C(c1ccccc1)C(O)(CCCCN(C)C)c1ccccc1 (centres unmarked) [Compound 43] |  |  | 21.2 µg/mL (≈ 39.9 µM) |  |
| COc1nc2ccc(Br)cc2cc1C(c1ccccc1)C(O)(CCCCN(C)Cc1ccccc1)c1ccccc1 (centres unmarked) [Compound 60] |  | 5.4 µg/mL (≈ 8.86 µM) |  |  |
| COc1nc2ccc(Br)cc2cc1C(c1ccccc1)C(O)(CCCCN(C)Cc1ccccc1)c1ccccc1 (centres unmarked) [Compound 61] |  |  |  | 5.43 µg/mL (≈ 8.91 µM) |
